# Data taken from US9540418B2, “Polypeptide specifically binding to rare earth nanoparticles and use thereof” (University of Science and Technology of China, priority 2012, dated 2017).
# Ends that are not written are not given here.
# Assays:
# [1] = Competitive inhibition of REOB-1 phage binding to Nd2O3 by polypeptides (IC50); conditions: 100 μg Nd2O3, REOB-1 phages at a titer of 108, 2 hr incubation; read-out: IC50 (μM)* of polypeptides competitively inhibiting the binding of REOB-1 phages to Nd2O3 nanoparticles
# Description: 100 μg Nd2O3 was mixed with the polypeptides, RE-1, AP-1, RE-2, RE-3, RE-4, RE-5, RE-6, RE-7, RE-8, RE-9, RE-10, etc., respectively. To the mixture, REOB-1 phages at a titer of 108 were added. After 2 hr of incubation, the number of REOB-1 phages binding to Nd2O3 was measured. IC50 value indicated the relative activity of various polypeptides competitively inhibiting the binding of REOB-1 phages to Nd2O3 nanoparticles. The polypeptide RE-1 and its analogues had different binding ability to Nd2O3.
# [2] = tested on: HeLa-LC3 cells; assay: RE-1 analogues blocking nanophosphor-induced autophagy (LC3 aggregates and vacuoles); type: cell-based; conditions: 24 hr; for inhibition of GFP-LC3 dot-like aggregation and cytoplasm vacuolation induced by UCN: 100 μg/mL UCN coated or mixed; for rank of ability after coating UCN to inhibit cell autophagy induced by UCN: 100 μg/mL
# Description: UCN and UCP coated with RE-1 analogues RE-2, RE-3, or RE-5 were prepared as follows: 50 μg or 10 μg RE-1 analogues RE-2, RE-3, or RE-5 was mixed with 100 μg UCN or UCP, respectively, incubated at 37° C. for 2 hr, centrifuged at 12000 rpm, and then washed with water 3 times to remove the excess and unbound peptides. The resultant precipitate was resuspended in 100 μL water.
# HeLa-LC3 cells were inoculated into a 96-well cell culture plate at a density of about 1-2×10^4 cells/well, and cultured overnight for further use. At first, the medium was replaced with fresh DMEM medium, and then 100 μg/mL UCN, UCN+RE-1, UCN+RE-2, UCN+RE-3, or UCN+RE-5 was added. An equal volume of PBS was used as blank. A mixture of 100 μg/mL UCN and 10 mg/mL PEG was used as negative control. A mixture of 100 mM trehalose and 50 μg RE-1 was used as positive control. After culturing for 24 hr, a fluorescence microscope was used to observe, image, and count.
# HeLa-LC3 cells were inoculated into a 96-well cell culture plate at a density of about 1-2×10^4 cells/well, and cultured overnight for further use. At first, the medium was replaced with fresh DMEM medium, and then 100 μg/mL UCP, UCP+RE-1, UCP+RE-2, UCP+RE-3, or UCP+RE-5 was added. An equal volume of PBS was used as blank. After culturing for 24 hr, a fluorescence microscope was used to observe, image, and count.
# The ability to induce cell autophagy was estimated by determining the numbers of LC3 aggregates and vacuoles.
# [3] = tested on: HeLa cells; assay: Effect of RE-1 analogues on cytotoxicity induced by UCN, UCP (MTT, PI staining); type: cell-based; conditions: 1 mg/mL, 24 hr
# Description: (§1) MTT cell vitality assay is performed as follows: The cells to which samples have been added are cultured for 24 hr, and then 0.5 mg/mL MTT solution is added and cultured for 4 hr. The MTT solution in the well is discharged, and then 200 μL DMSO is added, followed by gently shaking the plate on a shaking table for 10 min. Detection is performed using microplate reader (ELX800, purchased from BIO-TEK) at a wavelength of 570 nm.
# (§2) PI staining assay is performed as follows: The cells to which samples have been added are cultured for 24 hr, and then to the culture Hoechst 33342 (10 mM, purchased from Sigma, USA, Catalog #: B2261) and PI (Propidium Iodide) (10 mM, purchased from Beyotime Biotechnology, Catalog #: ST511) are added for 10 min of staining. Then, the cells are detected and photographed under a fluorescence microscope (Olympus IX71, purchased from Olympus). The number of the cells counted by this assay was 500.
# (§3) HeLa cells were inoculated into 96-well cell culturing plate at a density of about 1-2×10^4 cells/well, and cultured overnight for further use. At first, the medium was replaced with fresh DMEM medium, and then 1 mg/mL UCN, UCP, UCN+PEG (containing 10 mg PEG), UCN+RE-1, UCP, UCP+RE-1, UCN+RE-2, UCN+RE-3, UCN+RE-5, UCP+RE-2, UCP+RE-3, or UCP+RE-5 were added, respectively. After culturing for 24 hr, MTT cell viability assay and PI staining were performed to detect the mortality of the cells.
# [4] = tested on: LC3 II in HeLa cells; assay: Western blotting of LC3 in HeLa cells; type: cell-based; conditions: 100 μg/mL UCP+AP-1
# Description: (§4) Western blotting is performed as follows: After an incubation of 24 h, the cells are collected and lysed with lysis buffer (purchased from Beyotime Biotechnology, China). The lysate is boiled in boiling water for 10 min, subjected to 15% SDS-PAGE, and then transferred to nylon membrane (purchased from Amersham Inc.) by a wet transfer. In the Western blotting, Anti-LC3 (Light Chain 3 Protein Antibody, purchased from Novus Inc., Catalog #: NB 100-2220) is used as primary antibody; GAPDH (purchased from Millipore Inc.) is used as internal reference; and Horseradish peroxidase (HRP) conjugated goat anti-rabbit IgG (H+L) (Goat Anti-Rabbit IgG (H+L), HRP Conjugate) (purchased from Promega Inc.) is used as secondary antibody.
# HeLa cells were inoculated into a 24-well cell culturing plate at a density of about 3-5×10^4 cells/well, and cultured overnight for further use. At first, the medium was replaced with fresh DMEM medium, and then 100 μg/mL UCN or UCN+RE-1 was added. An equal volume of PBS was used as blank. A mixture of 100 μg/mL UCN and 10 mg/mL PEG was used as negative control. 100 mM trehalose was used as positive control. Then, western blotting assay was performed.
# HeLa cells were inoculated into a 24-well cell culturing plate at a density of about 3-5×10^4 cells/well, and cultured overnight for further use. At first, the medium was replaced with fresh DMEM medium, and then 100 μg/mL UCP or UCP+RE-1 was added. An equal volume of PBS was used as blank. A mixture of 100 μg/mL UCP+AP-1 and a mixture of 400 μg/mL TiO2+AP-1 were used as negative control. 400 μg/mL TiO2 was used as positive control. Then, western blotting assay was performed.
# [5] = tested on: LC3 type II in mice liver; assay: Western blotting of LC3 in mice livers after tail vein injection; type: in vivo; conditions: UCP+AP-1, tail vein, 24 hr
# Description: as §4
# (§5) Balb/c mice (purchased from SLAC Laboratory Animal (Shanghai, China), 6 weeks old, and weighed 20 g when used) were bred in a sterile housing, and then 300 μg (dosage: 15 mg/kg) UCN, UCN+PEG (containing 10 mg PEG), UCN+RE-1, UCP, UCP+RE-1, or UCP+AP-1 was injected through tail vein. An equal volume of normal saline was injected as a control. After 24 hr, the livers of the mice were removed and subjected to western blotting assay.
# [6] = tested on: mice liver; assay: Autophagosome formation in mice livers by transmission electron microscope; type: in vivo, Balb/c mice; conditions: RE-1 with UCN, PEG with UCN, AP-1 with UCP
# Description: as §5
# (§6) The mice livers obtained as described in Example 21 were in situ fixed with 2.5% glutaral-dimethyl arsine buffer (pH 7.4) at 4° C. for 1 hr, then fixed with 2% osmium tetroxide at room temperature for 1 hr, and then dehydrated with ethanol gradients. Then, the cell samples were embedded into epoxy resin (EPON812). The embedded cell samples were cut into ultrathin slices, which were stained with uranyl acetate and lead citrate, and observed and imaged under a transmission electron microscope (JEOL-1230, JEOL, Japan).
# [7] = tested on: mice liver; assay: Liver damage in mice livers (HE staining); type: in vivo, Balb/c mice; conditions: UCP+RE-1 or UCP+AP-1, tail vein, 24 hr
# Description: as §5
# as §6, with “in paraffin.” for “into epoxy resin (EPON812).”, “HE (hematoxylin-eosin),” for “uranyl acetate and lead citrate,”, “fluorescence microscope.” for “a transmission electron microscope (JEOL-1230, JEOL, Japan).”
# [8] = tested on: HeLa cells; assay: Adherence of UCN coated with RE-1 or RE-1-RGD to HeLa cells; type: cell-based; conditions: 37° C., 2 hr, versus uncoated
# Description: HeLa cells were cultured on a coverslip (22 mm×22 mm), which was then placed into a 6-well plate with the cells facing upward or downward, and the coverslip was supported by a sterilized glass cube (2 mm×2 mm×2 mm). Then, 4 mL of DMEM medium containing the rare-earth upconversion nanophosphors coated with RE-1 or RE-1-RGD or without any coating was slowly poured into the 6-well plate, such that the cells were fully immersed in the medium, and the coverslip was just located at the middle of the height of the liquid. The cells were placed into a cell incubator at 37° C. for 2 hr, and then washed with PBS 3 times. The UCNs adhered to the surfaces of the cells were observed under a fluorescence microscope (Olympus IX71, Olympus, Japan) equipped with a 980-nm infrared laser (MDL-980 nm 1 W, Changchun New Industries Optoelectronics Tech. Co., Ltd, China).
# [9] = tested on: HeLa-LC3 cells; assay: RE-1-RGD effect on UCN-induced autophagy (LC3 dot-like aggregates and vacuoles); type: cell-based; conditions: 100 μg/mL RE-1-RGD-coated UCN, 24 hr
# Description: UCN coated with RE-1-RGD was prepared as follows: 50 μg RE-1-RGD and 100 μg UCN were mixed, incubated at 37° C. for 2 hr, and then centrifuged at 12000 rpm. The resultant precipitate was washed with water for 3 times to remove the excess and unbound RE-1-RGD peptides. Then, the precipitate was resuspended in 100 μL water for further use.
# HeLa-LC3 cells were inoculated into a 96-well cell culture plate at a density of about 1-2×10^4 cells/well, and cultured overnight for further use. At first, the medium was replaced with fresh DMEM medium, and then 100 μg/mL UCN, UCN+RE-1, and UCN+RE-1-RGD were added, respectively. An equal volume of PBS was used as blank. After culturing for 24 hr, LC3 dot-like aggregates and vacuoles in the cells were observed and imaged under a fluorescence microscope.
# [10] = tested on: LC3 II in HeLa cells; assay: RE-1-RGD effect on UCN-induced autophagy (western blotting LC3 II); type: cell-based; conditions: 100 μg/mL RE-1-RGD-coated UCN
# Description: as §4
# HeLa cells were inoculated into 24-well cell culture plate at a density of about 3-5×10^4 cells/well, and cultured overnight for further use. At first, the medium was replaced with fresh DMEM medium, and then 100 μg/mL UCN, UCN+PEG (containing 10 mg PEG), UCN+RE-1, and UCN+RE-1-RGD were added, respectively. An equal volume of PBS was used as blank. 100 mM trehalose was used as positive control. Then, western blotting assay was performed.
# [11] = tested on: HeLa cells; assay: RE-1-RGD effect on cytotoxicity induced by UCN (MTT, PI staining); type: cell-based; conditions: 1 mg/mL RE-1-RGD-coated UCN, 24 hr, MTT and PI staining
# Description: as §1, §2
# as §3, with “UCN,” for “UCN, UCP, UCN+PEG (containing 10 mg PEG),”, “and UCN+RE-1-RGD” for “UCP, UCP+RE-1, UCN+RE-2, UCN+RE-3, UCN+RE-5, UCP+RE-2, UCP+RE-3, or UCP+RE-5”
substance,measurement,setting,value
"AATARSPWICG [RE-4, RE-1 2C→A]",IC50,[1],270 ± 8.67 µM
"ACAARSPWICG [RE-5, RE-1 3T→A]",IC50,[1],689 ± 8.38 µM
same,inhibition of GFP-LC3 dot-like aggregation and cytoplasm vacuolation induced by UCN,[2],did not inhibit
same,rank of ability after coating UCN to inhibit cell autophagy induced by UCN,[2],RE-1>RE-3>RE-5
same,inhibitory effect of coating on cytotoxicity induced by UCN and UCP,[3],RE-1>RE-3>RE-5
"ACNATLPHQCG [AP-1, same terminal amino acids but irrelevant amino acids therebetween, reference compound]",IC50,[1],> 5000 µM
same,inhibition of ability of nanophosphor to induce cell autophagy by AP-1,[4],not for AP-1
same,inhibition of ability of UCP to induce autophagy in liver,[5],could not inhibit
same,"inhibition of autophagosome formation induced by nanophosphors (UCN, UCP) in liver",[6],did not
same,effect of coating on liver damage induced by UCP,[7],showed no such effect
"ACTAASPWICG [RE-6, RE-1 5R→A]",IC50,[1],78.4 ± 7.07 µM
"ACTARAPWICG [RE-7, RE-1 65→A as printed]",IC50,[1],83.9 ± 6.65 µM
"ACTARSAWICG [RE-8, RE-1 7P→A]",IC50,[1],440 ± 8.48 µM
"ACTARSPAICG [RE-9, RE-1 8W→A]",IC50,[1],86.7 ± 8.07 µM
"ACTARSPWACG [RE-10, RE-1 9I→A]",IC50,[1],71.5 ± 5.1 µM
"ACWPATRISCG [RE-3, order of 7 middle amino acids of RE-1 disrupted]",IC50,[1],64.3 ± 2.33 µM
same,inhibition of GFP-LC3 dot-like aggregation and cytoplasm vacuolation induced by UCN,[2],exhibited an inhibitory effect
same,reduction of GFP-LC3 dot-like aggregation induced by UCN,[2]; 100 μg/mL UCN coated,21%
same,reduction of cytoplasm vacuolation induced by UCN,[2]; 100 μg/mL UCN coated,50%
same,rank of ability after coating UCN to inhibit cell autophagy induced by UCN,[2],RE-1>RE-3>RE-5
same,inhibitory effect of coating on cytotoxicity induced by UCN and UCP,[3],RE-1>RE-3>RE-5
"CRGDCGGACTARSPWICG [RE-1-RGD, RE-1 and tumor cell-targeting peptide RGD]",number of coated upconversion nanophosphors adhered to the surface of the cells,[8],significantly higher
same,LC3 dot-like aggregates and vacuoles in cells versus UCN group,[9],significantly increased
same,LC3 II in the cells,[10],significantly increased
same,cell mortality versus group treated with UCN,[11],significantly higher
"TARSPWI [RE-2, TARSPWI]",IC50,[1],1307 ± 6.5 µM
same,inhibition of GFP-LC3 dot-like aggregation and cytoplasm vacuolation induced by UCN,[2],did not inhibit
same,rank of ability after coating UCN to inhibit cell autophagy induced by UCN,[2],substantially no inhibitory effect
same,inhibitory effect of coating on cytotoxicity induced by UCN and UCP,[3],nearly showed no inhibitory effect
